Test results as given in PubChem BioAssay AID1259407 (Chemical Carcinogenesis Research Information System (CCRIS), 2018).
The source made the active and inactive calls. How the calls were made is not given here.

Tested on: CCRIS mutagenicity, Ames/micronucleus/aberration tests
Assay: CCRIS mutagenicity studies
[1] = Test System: AMES SALMONELLA TYPHIMURIUM, Strain/Indicator: TA98, Metabolic Activation: NONE, Method: PREINCUBATION
[2] = Test System: AMES SALMONELLA TYPHIMURIUM, Strain/Indicator: TA100, Metabolic Activation: NONE, Method: PREINCUBATION
[3] = Test System: AMES SALMONELLA TYPHIMURIUM, Strain/Indicator: TA1535, Metabolic Activation: NONE, Method: PREINCUBATION
[4] = Test System: AMES SALMONELLA TYPHIMURIUM, Strain/Indicator: TA98, Metabolic Activation: NONE, Method: STANDARD PLATE
[5] = Test System: AMES SALMONELLA TYPHIMURIUM, Strain/Indicator: TA98, Metabolic Activation: RAT, LIVER, S-9, AROCLOR 1254, Method: STANDARD PLATE
[6] = Test System: AMES SALMONELLA TYPHIMURIUM, Strain/Indicator: TA100, Metabolic Activation: NONE, Method: STANDARD PLATE
[7] = Test System: AMES SALMONELLA TYPHIMURIUM, Strain/Indicator: TA100, Metabolic Activation: RAT, LIVER, S-9, AROCLOR 1254, Method: STANDARD PLATE
[8] = Test System: AMES SALMONELLA TYPHIMURIUM, Strain/Indicator: TA100, Metabolic Activation: RAT, LIVER, S-9, AROCLOR 1254, Method: PREINCUBATION

For Nc1ccc(C(=O)O)cc1, the mutagenic call (Test System: AMES SALMONELLA TYPHIMURIUM, Strain/Indicator: TA98, Metabolic Activation: HAMSTER, LIVER, S-9, AROCLOR 1254 (10%), Method: PREINCUBATION) was “inactive; negative”, the mutagenic call [1] was “inactive; negative” and the mutagenic call (Test System: AMES SALMONELLA TYPHIMURIUM, Strain/Indicator: TA98, Metabolic Activation: RAT, LIVER, S-9, AROCLOR 1254 (10%), Method: PREINCUBATION) was “inactive; negative”. For the same compound, the mutagenic call (Test System: AMES SALMONELLA TYPHIMURIUM, Strain/Indicator: TA100, Metabolic Activation: HAMSTER, LIVER, S-9, AROCLOR 1254 (10%), Method: PREINCUBATION) was “inactive; negative”, the mutagenic call [2] was “inactive; negative” and the mutagenic call (Test System: AMES SALMONELLA TYPHIMURIUM, Strain/Indicator: TA100, Metabolic Activation: RAT, LIVER, S-9, AROCLOR 1254 (10%), Method: PREINCUBATION) was “inactive; negative”. For the same compound, the mutagenic call (Test System: AMES SALMONELLA TYPHIMURIUM, Strain/Indicator: TA1535, Metabolic Activation: HAMSTER, LIVER, S-9, AROCLOR 1254 (10%), Method: PREINCUBATION) was “inactive; negative”, the mutagenic call [3] was “inactive; negative” and the mutagenic call (Test System: AMES SALMONELLA TYPHIMURIUM, Strain/Indicator: TA1535, Metabolic Activation: RAT, LIVER, S-9, AROCLOR 1254 (10%), Method: PREINCUBATION) was “inactive; negative”. The mutagenic call (Test System: AMES SALMONELLA TYPHIMURIUM, Strain/Indicator: TA1537, Metabolic Activation: HAMSTER, LIVER, S-9, AROCLOR 1254 (10%), Method: PREINCUBATION) was “inactive; negative”, the mutagenic call (Test System: AMES SALMONELLA TYPHIMURIUM, Strain/Indicator: TA1537, Metabolic Activation: NONE, Method: PREINCUBATION) was “inactive; negative” and the mutagenic call (Test System: AMES SALMONELLA TYPHIMURIUM, Strain/Indicator: TA1537, Metabolic Activation: RAT, LIVER, S-9, AROCLOR 1254 (10%), Method: PREINCUBATION) was “inactive; negative”.

For CCCCCC(=O)O[C@]1(C(C)=O)CC[C@H]2[C@@H]3CCC4=CC(=O)CC[C@@H]4[C@H]3CC[C@@]21C, the mutagenic call [4] was “inactive; negative”, the mutagenic call [5] was “inactive; negative” and the mutagenic call [6] was “inactive; negative”. The mutagenic call [7] was “inactive; negative”, the mutagenic call (Test System: AMES SALMONELLA TYPHIMURIUM, Strain/Indicator: TA1535, Metabolic Activation: NONE, Method: STANDARD PLATE) was “inactive; negative” and the mutagenic call (Test System: AMES SALMONELLA TYPHIMURIUM, Strain/Indicator: TA1535, Metabolic Activation: RAT, LIVER, S-9, AROCLOR 1254, Method: STANDARD PLATE) was “inactive; negative”. The mutagenic call (Test System: AMES SALMONELLA TYPHIMURIUM, Strain/Indicator: TA1537, Metabolic Activation: NONE, Method: STANDARD PLATE) was “inactive; negative”, the mutagenic call (Test System: AMES SALMONELLA TYPHIMURIUM, Strain/Indicator: TA1537, Metabolic Activation: RAT, LIVER, S-9, AROCLOR 1254, Method: STANDARD PLATE) was “inactive; negative” and the mutagenic call (Test System: AMES SALMONELLA TYPHIMURIUM, Strain/Indicator: TA1538, Metabolic Activation: NONE, Method: STANDARD PLATE) was “inactive; negative”. The mutagenic call (Test System: AMES SALMONELLA TYPHIMURIUM, Strain/Indicator: TA1538, Metabolic Activation: RAT, LIVER, S-9, AROCLOR 1254, Method: STANDARD PLATE) was “inactive; negative”.

Fc1ccc2cccnc2c1 was tested, and the mutagenic call (Test System: AMES SALMONELLA TYPHIMURIUM, Strain/Indicator: TA100, Metabolic Activation: RAT LIVER S-9, PHENOBARBITAL AND 5,6-BENZOFLAVONE, Method: PREINCUBATION) was “active; positive”, the mutagenic call [8] was “active; positive” and the mutagenic call (Test System: UDS RODENT HEPATOCYTES, Strain/Indicator: THY INCORP (NON-S-PHASE), Metabolic Activation: NONE, Method: AUTORADIOGRAPHY) was “active; positive”.

With CCCCN(C[C@H](CO)Cc1ccccc1)N=O the mutagenic call [2] was “inactive; negative” and the mutagenic call (Test System: AMES SALMONELLA TYPHIMURIUM, Strain/Indicator: TA100, Metabolic Activation: RAT, LIVER, S-9, PCB, Method: PREINCUBATION) was “active; positive”.

O=C(CCCCl)N=c1sn(C(=O)CCCCl)c2ccc([N+](=O)[O-])cc12 was tested, and the mutagenic call (Test System: AMES SALMONELLA TYPHIMURIUM, Strain/Indicator: TA100, Metabolic Activation: S-9, Method: STANDARD PLATE) was “active; positive”.

With Oc1ccc2ccc3c4c(ccc3c2c1)[C@@H](O)[C@H](O)C=C4 the mutagenic call [4] was “inactive; negative”, the mutagenic call [5] was “active; positive” and the mutagenic call [6] was “inactive; negative”. For the same compound, the mutagenic call [7] was “active; positive”.

In the case of CC1CN1P(=O)(N1CC1C)N1CC1C (stereo unspecified), the mutagenic call (Test System: AMES SALMONELLA TYPHIMURIUM, Strain/Indicator: G46, Metabolic Activation: HOST MEDIATED, Method: STANDARD PLATE) is reported as “active; positive”.

O=C(O)/C=C/C=C/C(=O)O was tested, and the mutagenic call (End Point: IN VITRO CHROMOSOMAL ABERRATIONS, Test System: HUMAN PERIPHERAL LYMPHOCYTES, Metabolic Activation: NONE) was “active; positive (ploidy changes)”, the mutagenic call (End Point: IN VITRO CHROMOSOMAL ABERRATIONS, Test System: HUMAN PERIPHERAL LYMPHOCYTES, Metabolic Activation: NONE, Method: FISH- DUAL COLOR PROBES) was “inactive; negative for translocations” and the mutagenic call (Test System: AMES SALMONELLA TYPHIMURIUM, Strain/Indicator: TA97, Metabolic Activation: NONE, Method: PREINCUBATION) was “inactive; negative”. For the same compound, the mutagenic call (Test System: AMES SALMONELLA TYPHIMURIUM, Strain/Indicator: TA97, Metabolic Activation: RAT, LIVER, S-9, AROCLOR 1254, Method: PREINCUBATION) was “inactive; negative”, the mutagenic call (Test System: AMES SALMONELLA TYPHIMURIUM, Strain/Indicator: TA97, Metabolic Activation: RAT, LIVER, S-9, PHENOBARBITAL AND 5,6-BENZOFLAVONE, Method: PREINCUBATION) was “inactive; negative” and the mutagenic call [1] was “inactive; negative”. The mutagenic call (Test System: AMES SALMONELLA TYPHIMURIUM, Strain/Indicator: TA98, Metabolic Activation: RAT, LIVER, S-9, AROCLOR 1254, Method: PREINCUBATION) was “inactive; negative”, the mutagenic call (Test System: AMES SALMONELLA TYPHIMURIUM, Strain/Indicator: TA98, Metabolic Activation: RAT, LIVER, S-9, PHENOBARBITAL AND 5,6-BENZOFLAVONE, Method: PREINCUBATION) was “inactive; negative” and the mutagenic call [2] was “inactive; negative”. For the same compound, the mutagenic call [8] was “inactive; negative”, the mutagenic call (Test System: AMES SALMONELLA TYPHIMURIUM, Strain/Indicator: TA100, Metabolic Activation: RAT, LIVER, S-9, PHENOBARBITAL AND 5,6-BENZOFLAVONE, Method: PREINCUBATION) was “inactive; negative” and the mutagenic call (Test System: AMES SALMONELLA TYPHIMURIUM, Strain/Indicator: TA102, Metabolic Activation: NONE, Method: PREINCUBATION) was “inactive; negative”. The mutagenic call (Test System: AMES SALMONELLA TYPHIMURIUM, Strain/Indicator: TA102, Metabolic Activation: RAT, LIVER, S-9, AROCLOR 1254, Method: PREINCUBATION) was “inactive; negative”, the mutagenic call (Test System: AMES SALMONELLA TYPHIMURIUM, Strain/Indicator: TA102, Metabolic Activation: RAT, LIVER, S-9, PHENOBARBITAL AND 5,6-BENZOFLAVONE, Method: PREINCUBATION) was “inactive; negative” and the mutagenic call (Test System: AMES SALMONELLA TYPHIMURIUM, Strain/Indicator: TA104, Metabolic Activation: NONE, Method: PREINCUBATION) was “inactive; negative”. For the same compound, the mutagenic call (Test System: AMES SALMONELLA TYPHIMURIUM, Strain/Indicator: TA104, Metabolic Activation: RAT, LIVER, S-9, AROCLOR 1254, Method: PREINCUBATION) was “inactive; negative”, the mutagenic call (Test System: AMES SALMONELLA TYPHIMURIUM, Strain/Indicator: TA104, Metabolic Activation: RAT, LIVER, S-9, PHENOBARBITAL AND 5,6-BENZOFLAVONE, Method: PREINCUBATION) was “inactive; negative” and the mutagenic call [3] was “inactive; negative”. The mutagenic call (Test System: AMES SALMONELLA TYPHIMURIUM, Strain/Indicator: TA1535, Metabolic Activation: RAT, LIVER, S-9, AROCLOR 1254, Method: PREINCUBATION) was “inactive; negative”, the mutagenic call (Test System: CHINESE HAMSTER V-79, Strain/Indicator: V-79 (HGPRT)/8-AZAGUANINE, Metabolic Activation: NONE) was “inactive; negative” and the mutagenic call (Test System: CHINESE HAMSTER V-79, Strain/Indicator: V-79/6-THIOGUANINE, Metabolic Activation: NONE) was “inactive; negative”. For the same compound, the mutagenic call (Test System: E. COLI, Strain/Indicator: WP2 UVRA, Metabolic Activation: NONE, Method: PREINCUBATION) was “inactive; negative” and the mutagenic call (Test System: E. COLI, Strain/Indicator: WP2 UVRA, Metabolic Activation: RAT, LIVER, S-9, AROCLOR 1254, Method: PREINCUBATION) was “inactive; negative”.
